Test results reported in PubChem BioAssay AID1996.
≈ marks a conversion by molar mass, not a printed value.

Conditions: buffer; pH 7.4; 200.0 µM

Row | Structure (SMILES) | solubility kinetic
1 | O=C(COC(=O)c1cc(=O)[nH]c(=O)[nH]1)Nc1ccccc1F | > 46.1 µg/mL
2 | Cc1ccc(C(=O)C(C)OC(=O)Cn2c(C)csc2=O)cc1 (centres undefined) | > 47.9 µg/mL
3 | Cc1ccsc1C(=O)N1CCN(C(=O)c2ccco2)CC1 | > 45.7 µg/mL
4 | Cc1ccc(S(=O)(=O)N(C)CC(=O)OCC(=O)c2ccc3c(c2)NC(=O)CO3)cc1 | 25 µg/mL (≈ 57.8 µM)
5 | COc1ccc(NS(=O)(=O)c2cccc(C(=O)OCC(=O)NC3CC3)c2)cc1 | 11.6 µg/mL (≈ 28.7 µM)
6 | CCOC(=O)N1CCN(CC(O)c2c[nH]c3ccc(OC)cc23)CC1 (centres undefined) | > 52.1 µg/mL
7 | Cc1ccc(SC(C)C(=O)NCc2ccc(F)cc2)cc1 (centres undefined) | 8.2 µg/mL (≈ 27 µM)
8 | Cc1cccc(CNC(=O)C2CCC(=O)N(C3CCCCCC3)C2)c1 (centres undefined) | > 51.4 µg/mL
9 | CCCCN(C(=O)C1CCCC1)c1c(N)n(Cc2ccccc2)c(=O)[nH]c1=O | 3.6 µg/mL (≈ 9.36 µM)
10 | C/C(=N\O)C(C)(C)Nc1ccccc1F | 28.1 µg/mL (≈ 134 µM)
11 | COC(=O)c1cccc(NC(=O)CN2C(=O)c3ccccc3C2=O)c1 | 21.3 µg/mL (≈ 63 µM)
12 | O=C(COC(=O)CNC(=O)C1CCCCC1)Nc1ccccc1 | > 47.8 µg/mL
13 | O=C(NC1CCC1)C1CCC(=O)N(Cc2ccccc2F)C1 (centres undefined) | > 45.7 µg/mL
14 | O=C(COC(=O)CC1CCCC1)Nc1ccccc1[N+](=O)[O-] | 12.1 µg/mL (≈ 39.5 µM)
15 | N#CCNC(=O)C1CC(=O)N(CCc2ccc(F)cc2)C1 (centres undefined) | 39.7 µg/mL (≈ 137 µM)
16 | O=C(c1noc2c1CCCC2)N1CCc2ccccc2C1 | 40.8 µg/mL (≈ 145 µM)
17 | CCN(CC)C(=O)CSc1ncnc2sc(C)c(C)c12 | 43.4 µg/mL (≈ 140 µM)
18 | O=C(Cc1ccc(Br)cc1)Nc1ncc([N+](=O)[O-])s1 | 7.8 µg/mL (≈ 22.8 µM)
19 | Cc1sc(NC(=O)CCC(=O)O)c(C#N)c1C | > 37.8 µg/mL
20 | O=c1[nH]c2ccccc2[n+]([O-])c1-c1ccccc1 | > 35.7 µg/mL
21 | O=C(CN1CCCC1)Nc1ccc(Br)cc1[N+](=O)[O-] | 20.3 µg/mL (≈ 61.9 µM)
22 | Clc1cccc(C2Nc3cccc4cccc(c34)N2)c1 | 5.3 µg/mL (≈ 18.9 µM)
23 | FC(F)(F)c1cc(Nc2ccccc2)nc(-c2ccccn2)n1 | 2.9 µg/mL (≈ 9.17 µM)
24 | O=C(Cc1ccccc1)NCC(=O)OCC(=O)c1ccc(F)cc1 | > 49.4 µg/mL

Row | Structure (SMILES) | solubility kinetic
25 | O=C1CCCN1C(=O)CSc1ccc2ccccc2n1 | 41.9 µg/mL (≈ 146 µM)
26 | CSc1nc(-c2ccccc2)nc(NC(=O)C(C)C)c1C(C)=O | 0.8 µg/mL (≈ 2.43 µM)
27 | COc1ccccc1N1CCN(Cc2ccc(O)c3ncccc23)CC1 | 7.5 µg/mL (≈ 21.5 µM)
28 | O=C1CC(N2CCSCC2)C(=O)N1c1ccc(Br)cc1 (centres undefined) | > 53.3 µg/mL
29 | CCC(C)NC(=O)CN1c2cccc3cccc(c23)S1(=O)=O (centres undefined) | 35.5 µg/mL (≈ 111 µM)
30 | CC(C)C(=O)N1CCN(S(=O)(=O)c2ccc3ccccc3c2)CC1 | 23.2 µg/mL (≈ 67 µM)
31 | CC(C)CNC(=O)CO/N=C/c1ccccc1Cl | > 40.3 µg/mL
32 | O=C1C2C3C=CC(CC3)C2C(=O)N1c1cccc(Br)c1 (centres undefined) | 2 µg/mL (≈ 6.02 µM)
33 | O=C(NCc1ccccc1F)c1cc(=O)[nH]c2ccccc12 | 4.9 µg/mL (≈ 16.5 µM)
34 | Cc1ccc(C2=N/C(=C\c3cccc(F)c3)C(=O)O2)cc1 | < 0.6 µg/mL
35 | CC(=O)N/C(=C\c1ccccc1)C(=O)OCc1ccc(F)cc1 | 43.4 µg/mL (≈ 139 µM)
36 | O=C(CN1C(=O)NC(c2ccccc2)(c2ccccc2)C1=O)Nc1ccc(N2CCOCC2)cc1 | 2.6 µg/mL (≈ 5.53 µM)
37 | Cc1ncc([N+](=O)[O-])n1CC(=O)Nc1ccc(Cl)cc1 | 5.7 µg/mL (≈ 19.3 µM)
38 | CCN(CC)C(=O)COc1ccc2c(-c3ccccc3)cc(=O)oc2c1 | 40.7 µg/mL (≈ 116 µM)
39 | O=C(O)c1ccccc1Sc1ncnc2sccc12 | > 43.3 µg/mL
40 | COc1ccc(C(=O)N2CCN(c3ccc(C(C)=O)cc3)CC2)cc1S(=O)(=O)N1CCCC1 | > 70.7 µg/mL
41 | CC(=O)N(CCc1ccccc1)Cc1cc2ccc(C)c(C)c2[nH]c1=O | 17.4 µg/mL (≈ 49.9 µM)
42 | Cc1oc(-c2ccccc2)cc1C(=O)NC1CCN(Cc2ccccc2)CC1 | < 0.4 µg/mL
43 | Cc1ccc(/C(N)=N/OC(=O)CCCc2ccccc2)cc1 | 2 µg/mL (≈ 6.75 µM)
44 | Cc1ccc(NC(=S)N2CC(C)OC(C)C2)cc1C (centres undefined) | > 41.8 µg/mL
45 | O=S(=O)(NCc1ccccc1)c1ccc(Br)s1 | 21.3 µg/mL (≈ 64.1 µM)
46 | CN(C)S(=O)(=O)c1cccc(NC(=O)CCNC(=O)Nc2ccccc2)c1 | > 58.6 µg/mL
47 | CN(C)CCC(=O)c1ccc(F)cc1.Cl | > 34.8 µg/mL
48 | COCCn1c(C)c(C)c2c(NCCc3ccccc3)ncnc21 | 34.8 µg/mL (≈ 107 µM)

Row | Structure (SMILES) | solubility kinetic
49 | Cc1cc(C(=O)OCC(=O)NCc2ccccc2)c(C)o1 | > 43.1 µg/mL
50 | CCOC(=O)N1CCN(C(=O)c2c(N)no[n+]2[O-])CC1 | > 42.8 µg/mL
51 | Cc1ccccc1OCC(=O)Nc1ccccc1-c1ccccc1 | < 0.7 µg/mL
52 | CC1CC(NC(=O)/C(C#N)=C/c2ccc[nH]2)CC(C)(C)C1 (centres undefined) | < 0.2 µg/mL
53 | O=C(c1ccc(-c2cc(Cl)ccc2Cl)o1)N1CCOCC1 | 11.3 µg/mL (≈ 34.6 µM)
54 | Cc1nc([N+](=O)[O-])cn1CC(=O)c1ccccc1 | 31.5 µg/mL (≈ 128 µM)
55 | COC(=O)[C@@H](N)CS.Cl | > 25.7 µg/mL
56 | CSC1=NC2(C[C@H]2c2ccccc2)C(=O)N1C (some centres undefined) | > 36.9 µg/mL
57 | CC1CCCN(S(=O)(=O)c2cccc3nonc23)C1 (centres undefined) | 13.2 µg/mL (≈ 46.9 µM)
58 | CC(C)n1cnc2cc(NC(=O)c3ccco3)ccc21 | > 40.4 µg/mL
59 | CC(C)CC(=O)NC(=S)Nc1ccccc1N1CCCC1 | 4 µg/mL (≈ 13.1 µM)
60 | CC(C)[C@H](NS(=O)(=O)c1ccccc1)C(=O)Nc1ccccc1N1CCOCC1 | 52.1 µg/mL (≈ 125 µM)
61 | CCOc1nc2ccccc2nc1NS(=O)(=O)c1ccc(Cl)cc1 | > 54.6 µg/mL
62 | O=C(Nc1cccc(Cl)c1)c1ccc2ncsc2c1 | 21.2 µg/mL (≈ 73.4 µM)
63 | Cc1cccc(CC(=O)N2CCCC2)c1 | 28.7 µg/mL (≈ 141 µM)
64 | COc1ccc(-n2c(C)c(C)c3c(NCCO)ncnc32)cc1 | > 46.9 µg/mL
65 | CC1C(=O)C(C)(C)C(=O)OC1c1ccc([N+](=O)[O-])cc1 (centres undefined) | 12.4 µg/mL (≈ 44.7 µM)
66 | CC(NC(=O)c1cccc(S(=O)(=O)N(C)c2ccccc2)c1)c1cccnc1 (centres undefined) | > 59.3 µg/mL
67 | Cn1c(=NC(=O)COc2ccccc2)sc2cc(F)cc(F)c21 | < 0.4 µg/mL
68 | CC(C)NC(=O)c1ccc(CSCc2ccccc2Cl)o1 | > 48.6 µg/mL
69 | CSc1ccc(NC(N)=S)cc1 | > 29.7 µg/mL
70 | CCNC(=S)NNC(=O)CC(C)C | > 30.5 µg/mL
71 | N#Cc1ccc(C(=O)NC23CC4CC(CC(C4)C2)C3)cc1 | 0.8 µg/mL (≈ 2.85 µM)
72 | CCS(=O)(=O)c1ccc2oc(Nc3cccc(OC)c3)nc2c1 | 8.2 µg/mL (≈ 24.7 µM)

Row | Structure (SMILES) | solubility kinetic
73 | Cc1nc(NC(=O)c2ccco2)sc1C(=O)O | > 37.8 µg/mL
74 | N#Cc1cnc(SCC(=O)N2CCCC2)nc1N | > 39.5 µg/mL
75 | CC(C)(C)NC(=O)c1ccccc1NC(=O)c1ccc2c(c1)OCO2 | 5.3 µg/mL (≈ 15.6 µM)
76 | Cc1ccc(S(=O)(=O)CCN2CCN(c3ccccn3)CC2)cc1 | > 51.8 µg/mL
77 | CCN(CC)CCCNc1ncnc2ccccc12.Cl | 42.3 µg/mL
78 | Cc1ccc2nc(-c3ccccc3C)oc(=O)c2c1 | < 0.5 µg/mL
79 | CCn1c(=O)c([N+](=O)[O-])c(NCC2CCCO2)c2ccccc21 (centres undefined) | 47.5 µg/mL (≈ 150 µM)
80 | O=C(O)CNC(=S)N(Cc1ccccc1F)C1CCCCC1 | > 48.7 µg/mL
81 | Cc1nc(-c2ccccc2)sc1C(=O)Nc1ccccc1F | 1.8 µg/mL (≈ 5.76 µM)
82 | Cl.O=C(Nc1ccccc1)N1CCNCC1 | 30.6 µg/mL
83 | COc1ccc(NC2CCCN(C(=O)c3cccnc3)C2)cc1 (centres undefined) | > 46.7 µg/mL
84 | O=C(c1cc(S(=O)(=O)N2CCOCC2)c(Cl)cc1Cl)N1CCN(S(=O)(=O)c2cccc(F)c2)CC1 | 20.8 µg/mL (≈ 36.7 µM)
85 | CCOC(=O)c1ccc(Nc2c(OCC)c(=O)c2=O)cc1 | 21.6 µg/mL (≈ 74.7 µM)
86 | O=C(NN=C1CCCCC1)c1ccccc1-n1cccc1 | > 42.2 µg/mL
87 | COc1ccc(CCC(=O)N2CCCc3ccccc32)cc1 | 39.1 µg/mL (≈ 132 µM)
88 | O=C(Nc1ccc(F)cc1)c1cncs1 | > 33.3 µg/mL
89 | O=C(NC1CCCC1)c1ccccc1OCc1ccccc1 | 15 µg/mL (≈ 50.8 µM)
90 | Cc1cc(NC(=O)CC(C)C)c(=O)n(Cc2cccc(F)c2)c1 | 43.7 µg/mL (≈ 138 µM)
91 | Cc1cc(C(=O)N2CCN(c3ncccc3C#N)CC2)no1 | 43.7 µg/mL (≈ 147 µM)
92 | O=C(NCc1ccccc1Cl)c1ccc2c(c1)OCO2 | > 43.5 µg/mL
93 | COc1ccc(C(CNC(=O)c2cccc(S(=O)(=O)N3CCc4ccccc43)c2)N(C)C)cc1 (centres undefined) | 39.3 µg/mL (≈ 81.9 µM)
94 | CCNc1nc(NC(C)C)nc(N(C#N)C(C)C(=O)N(CC)CC)n1 (centres undefined) | > 52.3 µg/mL
95 | CCC/C(O)=C1\C(=O)CC(C)(C)CC1=Nc1ccc(OC)cc1 | 41.6 µg/mL (≈ 132 µM)
96 | Cl.Nc1ccc2nc(CCCO)[nH]c2c1 | > 39.6 µg/mL

Row | Structure (SMILES) | solubility kinetic
97 | COc1ccc(-c2noc(CN(C)Cc3ccccc3)n2)cc1 | 5.7 µg/mL (≈ 18.4 µM)
98 | CCCCn1c(O)c(/C=C2/C=CC=N2)c(=O)[nH]c1=O | 5.1 µg/mL (≈ 19.5 µM)
99 | COc1cccc(C(=O)CC(=O)C(=O)Nc2ccc(C)cc2Cl)c1 | 8.1 µg/mL (≈ 23.4 µM)
100 | Cc1ccc(-n2cnc3sc(C)c(C)c3c2=O)cc1 | 0.8 µg/mL (≈ 2.96 µM)
101 | CCOc1cc(C(=O)N=c2sccn2C)ccc1OC(F)F | 45.4 µg/mL (≈ 138 µM)
102 | N#Cc1ccc(C(=O)Nc2cccc(NC(=O)c3ccco3)c2)c(F)c1 | 2 µg/mL (≈ 5.73 µM)
103 | COc1ccc(C(=O)OC2CC3CCC(C2)[N+]3(C)[O-])cc1OC (centres undefined) | 47.8 µg/mL (≈ 149 µM)
104 | CC(C)C(=O)Nc1ncc(Cc2ccccc2Cl)s1 | < 0.3 µg/mL
105 | COc1ccc(CNC(=O)Nc2ccccc2)cc1 | 13.5 µg/mL (≈ 52.7 µM)
106 | Clc1cccc(CN2CCCCCC2)c1 | 14.3 µg/mL (≈ 63.9 µM)
107 | Cc1cccc(C(CC(=O)NCc2ccco2)c2ccccc2)c1O (centres undefined) | > 50.3 µg/mL
108 | O=c1c2ccccc2nc(CNCC2CCCO2)n1-c1ccc(F)cc1 (centres undefined) | 44.9 µg/mL (≈ 127 µM)
109 | C[C@@H](NC(=O)[C@@H]1Cc2ccccc2CN1)C(=O)NC1CCCC1 | > 47.3 µg/mL
110 | CC(C)Oc1ccc(C(=O)OCC(=O)c2ccc[nH]2)cc1 | 15.1 µg/mL (≈ 52.6 µM)
111 | O=C(Nc1ccc2c(c1)OCCO2)c1ccccc1 | > 38.3 µg/mL
112 | O=C(CN1CCN(c2cccc(Cl)c2)CC1)NCc1ccccc1 | 42.5 µg/mL (≈ 124 µM)
113 | C=CCNc1nc(NCc2ccccc2)c(C#N)c2c1CN(C)CC2 | 3 µg/mL (≈ 9 µM)
114 | Cc1ccc(NS(=O)(=O)c2cc(N)ccc2Cl)c(C)c1 | 43.5 µg/mL (≈ 140 µM)
115 | COC(=O)CCC(=O)NC(=S)Nc1ccc(S(=O)(=O)Nc2cc(C)on2)cc1 | 57.4 µg/mL (≈ 135 µM)
116 | CCCCN(C(C)=O)c1ccc(S(=O)(=O)NC2=NCCCCC2)cc1NC(C)=O | > 63.4 µg/mL
117 | O=C1CSCC(=O)N1Cc1ccc(Cl)c(Cl)c1 | 43.2 µg/mL (≈ 149 µM)
118 | O=C(COC(=O)c1ccc(Br)cc1)NC1CCCC1 | 5.4 µg/mL (≈ 16.6 µM)
119 | COc1ccc(C2CC(=O)C(C=NCCO)=C(O)C2)cc1 (centres undefined) | 38 µg/mL (≈ 131 µM)
